Measurements taken from ChEMBL document CHEMBL1128077, “6,3'-Dinitroflavone, a novel high affinity ligand for the benzodiazepine receptor with potent anxiolytic properties” (Bioorg Med Chem Lett, 1995).

Target: GABA-A receptor; anion channel
Assay: Inhibition of [3H]flunitrazepam binding to GABA-A central benzodiazepine receptor of bovine cerebral cortical membranes
Parameters: species or system Bos taurus

Compound | Ki
O=c1cc(-c2ccc([N+](=O)[O-])cc2)oc2ccc([N+](=O)[O-])cc12 | 17 µM
O=c1cc(-c2cccc([N+](=O)[O-])c2)oc2ccc([N+](=O)[O-])cc12 | 0.012 µM
